These results are taken from patent publication US9334242B2, “Compounds for treatment of cancer” (GTX, INC., priority 2010, dated 2016).

Series [1] relates to ICR mice. As to the kind of experiment: Rotarod test (in vivo neurotoxicity). More on the design: species or system mouse. As to conditions: 1h 5 or 15 mg/kg, vinblastine 0.5 mg/kg, i.p. daily to day 31. For orientation: The rotarod test checks motor coordination on a turning rod.
In series [2] the test system is PC-3 prostate tumor xenograft. As to the kind of experiment: PC-3 tumor xenograft study in nude mice. Type of series: in vivo, mouse. As to conditions: for mice that lost more than 15% body weight: PC-3 xenograft study; for % T/C: PC-3 xenograft. From the text:
(§1) PC-3 and A375 tumor xenograft studies.

Series [3] has as its system PC-3 cells. As to the kind of experiment: Apoptosis detection by ELISA (cytoplasmic DNA-histone complexes). Format: cell-based, human. The following applies: 24 h. From the text: (§2) Apoptosis detection by ELISA. Quantification of the enrichment of mono- and oligonucleosomes in the cytoplasm was used to determine the ability of the compounds to induce apoptosis (cell death detection ELISA PLUS, Roche, Germany) following the manufacturer's instructions.
(In an ELISA, binding on a coated surface is turned into a signal by an enzyme label.)

Series [4] has as its system A375 cells. The description is as above. Type of series: cell-based, human. As to conditions: 24 h.
Source text: as §2

The test system of series [5] is A375 melanoma xenografts. As to the kind of experiment: A375 tumor xenograft study in athymic nude mice. Format: in vivo, mouse. The following applies: for T − C: tumor growth delay.
Source text: as §1

Series [6] deals with melanoma (B16-F1, A375, WM-164) and prostate cancer (LNCaP, PC-3, DU 145, PPC-1) cell lines. As to the kind of experiment: Cytotoxicity SRB assay, ranges or averages quoted over the melanoma and prostate cancer cell lines. Format: cell-based.
For series [7], the system named is prostate cancer cells (LNCaP, DU 145, PC-3, PPC-1). As to the kind of experiment: Cytotoxicity SRB assay, values quoted for the prostate cancer cell panel. Format: cell-based. As to conditions: Homo sapiens, read-out: IC50s against prostate cancer cells (range).
Series [8] relates to WM-164 melanoma cells. As to the kind of experiment: Microtubule imaging (immunofluorescence, Cellomics Cytoskeleton rearrangement kit). Type of series: cell-based, human. As to conditions: WM-164 cells, 18 h. From the text: Primary antibody for tubulin and fluorescence-labeled secondary antibody were subsequently added to the cells. Cell nuclei were stained by DAPI. Whole Cell Stain Green was also applied to all cells. All images were acquired with an Olympus IX71 inverted fluorescence microscope (Olympus Corp., Tokyo, Japan) with overlays from separate images of tubulin (red), nuclei (blue), and whole cells (green).

In series [9] the target is Bovine brain tubulin (Bos taurus, UniProt P81947+Q6B856). As to the kind of experiment: In vitro tubulin polymerization assay. Format: biochemical. The following applies: 10 μM. As to the method:
In Vitro Tubulin Polymerization Assay.
In vitro microtubule polymerization assay. […] The spectrophotometer was maintained at 37° C. for tubulin polymerization.

The nature of series [10]: Pharmacokinetic study in ICR mice. The following applies: ICR mice, 15 mg/kg i.v.
For series [11], the system named is PC-3. As to the kind of experiment: Cytotoxicity / cell growth inhibition, SRB assay. The following applies: Homo sapiens, PC-3, read-out: IC50 (nM) PC-3, Table 6A. A general note: In SRB staining, fixed cells bind dye roughly in proportion to their protein.
The nature of series [12]: in vivo. The following applies: male, ICR, mouse, plasma, iv, 10 mg/kg.
Series [13] in a line: in vivo. As to conditions: female, Sprague-Dawley, rat, plasma, iv, 5 mg/kg.
For series [14], the system named is B16-F1 melanoma cells. As to the kind of experiment: Melanoma colony formation assay in soft agar. Format: cell-based, mouse. The following applies: 14 days, tested 20, 100, 500 nM. As to the method: B16-F1 melanoma cells were plated at a colony-forming density (2000 cells per well on six-well plates) on top of 0.8% base agar. Cells were grown in 0.4% agar together with DMEM medium supplemented with fetal bovine serum and an antibiotic-antimycotic solution at 37° C. in an atmosphere of 95% air and 5% CO2. […] Compounds were added to the media from 1-mM DMSO stock solutions, and a corresponding dilution of DMSO was used as control. Cells were grown for 14 days. Plates were photographed, and the number of colonies was measured by Artek 880 Automated Colony Counter (Artek Systems Corporation, Farmingdale, N.Y.).

Series [15] concerns T1, tubulin colchicine binding site.
T1 construct: […]; other: SPA
As to the kind of experiment: [3H]-colchicine competition-binding scintillation proximity assay. The following applies: SPA.

Series [16] deals with PPC-1. As to the kind of experiment: Cytotoxicity / cell growth inhibition, SRB assay. The following applies: Homo sapiens, PPC-1, 96 h, read-out: IC50 ± SEM (nM) PPC-1, Table 12; 96 h exposure.
Where [17] appears, read: quoted in the text to Table 2, read-out: IC50 (range or bound over the tested cancer cell lines).
Setting [18] is: after 20 min incubation, compared to vehicle (Example 11D).
Where [19] appears, read: range given, read-out: IC50 (range over the tested cancer cell lines).

Molecules are shown by their SMILES. Like-named read-outs stand apart in the source and are kept apart here.

Regarding `COc1cc(C(=O)c2csc(-c3ccccc3)n2)cc(OC)c1OC` [1h, (2-Phenyl-thiazol-4-yl)-(3,4,5-trimethoxy-phenyl)-methanone], in series [1], the “time on the rotating rod compared to the vehicle group” value is recorded as “no significant difference”. In addition, the “mice that lost more than 15% body weight” value in series [2] (15 mg/kg i.p.) is on record as 1 of 8. In addition, the concentration inducing apoptosis in series [3] and in [4] was 50 nM throughout.

With `COc1cc(C(=O)c2csc(-c3ccc(F)cc3)n2)cc(OC)c1OC` [SMART-F], in [5] (Melanoma (A375) xenograft, 15 mg/kg i.p., doubling time 4.6 d), the “Total log cell kill” value is reported as 0.7. In addition, the “T − C” value in [5] (Melanoma (A375) xenograft, 15 mg/kg i.p.) was 11 days.

With `COc1cc(/C(=N\O)c2csc(-c3ccccc3)n2)cc(OC)c1OC` [2e-trans, (E)-(2-Phenylthiazol-4-yl)(3,4,5-trimethoxyphenyl)methanone oxime], in series [6] (setting [17]), the IC50 was above 10000 nM.

`COc1cc(C(=O)c2cccc(-c3ccccc3)n2)cc(OC)c1OC` [1c, (6-Phenylpyridin-2-yl)(3,4,5-trimethoxyphenyl)methanone]: in [7], the IC50 was in the range of 12 to 35 nM.

`COc1ccc(S(=O)(=O)Nc2cccnc2Nc2ccc(O)cc2)cc1` [ABT-751, reference compound]: in series [8], the “effect on microtubule arrangement” value is on record as “microtubule fragmentation”.

`COc1cc(C(=O)c2csc(-c3ccc(F)cc3)n2)cc(OC)c1OC` [2k]: in series [5] (1h 20 mg/kg, 2k 15 mg/kg, i.p.), the “% T/C, A375” value worked out at 29%. In addition, the “tumor volume, A375” value in [5] (1h 20 mg/kg, 2k 15 mg/kg, i.p., 34 days) came out at 722 mm^3. Moreover, the “% T/C” value in [2] (5 mg/kg i.p.) was determined as 21%; in series [2] (15 mg/kg i.p.), 24%. In [2] (15 mg/kg i.p.), the “mice that lost more than 15% body weight” value is on record as 2 out of 7. In addition, the concentration inducing apoptosis in series [3] and in [4] was 50 nM throughout. The “inhibition of tubulin polymerization” value in series [9] (15 min (Example 22)) was 90%.

As to `COc1cc(C(=O)c2coc(-c3ccccc3)n2)cc(OC)c1OC` [36a, (2-Phenyl-oxazol-4-yl)-(3,4,5-trimethoxy-phenyl)-methanone], the “IC50 (range over the tested cancer cell lines)” value in series [6] (range given) is reported as “hundreds of nanomolar range”.

Take `COc1cc(C(=NC#N)c2csc(-c3ccccc3)n2)cc(OC)c1OC` [2j, N-((2-phenylthiazol-4-yl)(3,4,5-trimethoxyphenyl)methylene)cyanamide]: the “inhibition of tubulin polymerization” value in series [9] (setting [18]) was 64%.

In the case of `COc1cc(C(=O)c2csc(-c3ccc(O)cc3)n2)cc(OC)c1OC` [2l, (2-(4-Hydroxyphenyl)thiazol-4-yl)(3,4,5-trimethoxyphenyl)methanone], the IC50 in series [6] (setting [19]) was 76 to 116 nM. Besides, the “% T/C” value in series [2] (50 mg/kg i.p.) amounted to 34%. Also, the “Vss relative to that of 1h and 2k (times higher)” value in [10] was 2-3 times. In addition, the concentration inducing apoptosis result in [3] and in series [4] was “greater than or equal to 200 nM” throughout. The “inhibition of tubulin polymerization” value in series [9] (15 min (Example 22)) is given as 55%.

As for `COc1cc(C(=NC#N)c2csc(-c3ccccc3)n2)cc(OC)c1O` [compound 32, N-((4-hydroxy-3,5-dimethoxyphenyl)(2-phenylthiazol-4-yl)methylene)cyanamide], the IC50 in series [11] turned out to be 229 nM.

Consider `CC[C@]1(O)C[C@@H]2CN(CCc3c([nH]c4ccccc34)[C@@](C(=O)OC)(c3cc4c(cc3OC)N(C)[C@H]3[C@@](O)(C(=O)OC)[C@H](OC(C)=O)[C@]5(CC)C=CCN6CC[C@]43[C@@H]65)C2)C1` [vinblastine, reference compound], for which the “time on the rotating rod compared to the vehicle group” value in series [1] was “gradually reduced the time”.

With `COc1cc(/C(=N/O)c2csc(-c3ccccc3)n2)cc(OC)c1OC` [2e-cis, (Z)-(2-Phenylthiazol-4-yl)(3,4,5-trimethoxyphenyl)methanone oxime], the IC50 in [6] (setting [17]) lay in the range of 100 to 300 nM.

Turning to `COc1cc(C(=O)c2c[nH]c(-c3ccc(Cl)cc3)n2)cc(OC)c1OC` [12fa, (2-(4-chlorophenyl)-1H-imidazol-4-yl)(3,4,5-trimethoxyphenyl)methanone], the figures for the distribution volume (Vd) in series [12] and in series [13] were 4 L/kg and 1.9 L/kg, respectively. Besides, the results for the clearance in series [12] and in series [13] were 61 mL/min/kg and 16 mL/min/kg, respectively.

In the case of `COc1cc(C(=O)c2csc(-c3ccccc3)n2)cc(OC)c1OC` [SMART-H], the “T − C” value in series [5] (Melanoma (A375) xenograft, 20 mg/kg i.p.) is 10 days.

For the compound `COc1cc(C(=O)c2csc(Nc3ccccc3)n2)cc(OC)c1OC` [5a, (2-(Phenylamino)thiazol-4-yl)(3,4,5-trimethoxyphenyl)methanone], the “inhibition of tubulin polymerization” value in series [9] (setting [18]) stood at 78%.

For `COc1cc(C(=O)c2csc(-c3ccc4[nH]ccc4c3)n2)cc(OC)c1OC` [66a], in series [6] (setting [19]), the IC50 is 7 to 25 nM. The “inhibition of tubulin polymerization” value in series [9] (setting [18]) came to 81%.

For `COc1ccc(-c2nc(C(=O)c3ccc(F)cc3)c[nH]2)cc1` [12cb, (4-fluorophenyl)(2-(4-methoxyphenyl)-1H-imidazol-4-yl)methanone], in series [8], the “effect on microtubule arrangement” value is “microtubule fragmentation”. In [14], the “concentration with effective inhibition of B16-F1 melanoma colony formation” value came out at 20 nM.

As for `CNCc1ccc(-c2nc(C(=O)c3cc(OC)c(OC)c(OC)c3)cs2)cc1.Cl` [2s, (2-(4-((Methylamino)methyl)phenyl)thiazol-4-yl)(3,4,5-trimethoxyphenyl)methanone hydrochloride], in series [6] (range given), the “IC50 (range over the tested cancer cell lines)” value is reported as “abrogated activity”.

With `O=C(c1ccc(F)cc1)c1c[nH]c(-c2ccc(OCc3ccccc3)cc2)n1` [12jb, (2-(4-(benzyloxy)phenyl)-1H-imidazol-4-yl)(4-fluorophenyl)methanone], the “increase in activity compared with 12 kb (fold)” value in [6] was 440 fold.

`Cc1ccc(-c2nc(C(=O)c3ccc(F)cc3)c[nH]2)cc1` [12 db, (4-fluorophenyl)(2-(p-tolyl)-1H-imidazol-4-yl)methanone]: the “inhibition of tubulin polymerization” value in series [9] (15 min (Example 16)) is around 80%.

Regarding `COc1cc(C(=O)c2c[nH]c(-c3ccc(C)cc3)n2)cc(OC)c1OC` [12da, (2-(p-tolyl)-1H-imidazol-4-yl)(3,4,5-trimethoxyphenyl)methanone], the “effect on microtubule arrangement” value in [8] is “microtubule fragmentation”. Moreover, the “concentration with effective inhibition of B16-F1 melanoma colony formation” value in series [14] is listed as 20 nM. The “competition for the tubulin colchicine binding site (in words)” value in series [15] was “highest binding affinity”. For the same compound, in series [9] (15 min (Example 16)), the “inhibition of tubulin polymerization” value is “completely inhibited”.

As to `CN(C)c1ccc(-c2nc(C(=O)c3ccc(F)cc3)c[nH]2)cc1` [12gb, (2-(4-(dimethylamino)phenyl)-1H-imidazol-4-yl)(4-fluorophenyl)methanone], the IC50 in series [16] is 4 nM.

As to `COc1cc(C(=O)c2csc(-c3ccc(CN(C)C)cc3)n2)cc(OC)c1OC.Cl` [2u, (2-(4-((Dimethylamino)methyl)phenyl)thiazol-4-yl)(3,4,5-trimethoxyphenyl)methanone hydrochloride], in series [6] (range given), the “IC50 (range over the tested cancer cell lines)” value was “abrogated activity”.

As for `COc1cc(C(=O)[C@H]2COC(c3ccccc3)=N2)cc(OC)c1OC` [35a, (2R)-(2-Phenyl-4,5-dihydro-oxazol-4-yl)-(3,4,5-trimethoxy-phenyl)-methanone], the “IC50 (range over the tested cancer cell lines)” value in series [6] (range given) is “hundreds of nanomolar range”.

Turning to `COc1cc(C(=O)c2cccc(-c3ccccc3)c2)cc(OC)c1OC` [1a, Biphenyl-3-yl(3,4,5-trimethoxyphenyl)methanone], in series [6] (range given), the “IC50 (range over the tested cancer cell lines)” value was “hundreds of nanomolar range”.
